From patent US11903961B2, “Hemostatic agent and method of production thereof” (AMRITA VISHWA VIDYAPEETHAM, priority 2020, dated 2024)

System: PPP (coagulation cascade)
Test: PT, aPTT and TT studies on PPP (coagulation analyzer)
Type: biochemical
Conditions: rat PPP incubated 2 min with sample
Experimental: To confirm the role of third agent (Ca) (130) in the hemostatic composition, PT, a PTT and TT studies were performed using ST art 4, Diagnostica Stago, France. PPP was separated from anti-coagulated rat whole blood by centrifugation. PPP was incubated with the developed hemostatic composition for 2 min. For PT study, PPP from incubated sample was added to PT reagent in a cuvette placed in test area of coagulation analyzer and the time taken for PPP to clot was noted as PT. For a PTT study, PPP from incubated sample was further incubated with a PTT reagent after with cuvette was placed in test area and STA®-CaCl2 0.025M solution was added. Time taken for PPP to clot was noted as a PTT. For TT study, PPP from incubated sample was added to TT reagent in a cuvette placed in test area and the time taken for PPP to clot was noted as TT.

[Ca+2].[Cl-].[Cl-] [third agent, calcium chloride]
shorter: PT | TT | aPTT
